From article PMC12426935, “On-Cell Saturation Transfer Difference NMR Spectroscopy on Ion Channels: Characterizing Negative Allosteric Modulator Binding Interactions of P2X7” (Journal of the American Chemical Society, 2025)
Positions count from the first letter of the chain named. Read-outs that look alike come from different tables or passages of the source.

Experiments:
human P2X7 (WT hP2X7) = target: T1, human P2X7 (WT hP2X7) (Homo sapiens, UniProt Q99572); test: fura-2 intracellular calcium assay on HEK-293 stable cell line expressing human P2X7; format: cell-based
T1 sequence (Q99572 1-595): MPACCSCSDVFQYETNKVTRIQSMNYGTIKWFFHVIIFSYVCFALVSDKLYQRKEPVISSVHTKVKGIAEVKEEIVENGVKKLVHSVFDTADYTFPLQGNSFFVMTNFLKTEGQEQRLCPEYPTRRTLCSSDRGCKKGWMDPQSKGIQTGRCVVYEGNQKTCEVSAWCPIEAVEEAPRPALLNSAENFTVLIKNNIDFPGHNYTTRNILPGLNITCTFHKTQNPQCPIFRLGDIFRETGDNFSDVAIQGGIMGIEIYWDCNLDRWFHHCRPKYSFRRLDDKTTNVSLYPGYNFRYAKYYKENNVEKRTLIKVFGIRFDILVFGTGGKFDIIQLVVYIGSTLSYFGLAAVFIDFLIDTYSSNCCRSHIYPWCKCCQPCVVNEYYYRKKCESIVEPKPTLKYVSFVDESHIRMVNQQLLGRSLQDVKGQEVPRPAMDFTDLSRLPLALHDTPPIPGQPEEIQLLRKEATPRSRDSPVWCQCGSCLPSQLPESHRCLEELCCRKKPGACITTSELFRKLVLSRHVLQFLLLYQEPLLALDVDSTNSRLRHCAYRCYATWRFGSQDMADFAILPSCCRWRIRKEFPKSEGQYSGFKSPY
Method: (§1) Transfection was performed using lipofectamine 2000 (Fisher Scientific), and cells were subjected to Geneticin (800 μg/mL) selection for 2–3 weeks. This was followed by single cell cloning by limiting dilution in 96-well plates. Individual clones were selected for further study based on ATP-induced TO-PRO-3 uptake on a BD Cytoflex flow cytometer. Cell lines were maintained in DMEM:F12 media supplemented with 10% fetal bovine serum (PanBiotech), penicillin and streptomycin (Fisher Scientific) and kept in a humidified incubator with 5% CO2. Stable P2X7-expressing cells were kept under Geneticin selection at a concentration of 400 μg/mL. Passaging was performed twice weekly using 0.25% Trypsin-EDTA (Fisher Scientific).
P2X7 responses were measured by monitoring intracellular calcium responses using fura-2AM loaded cells. Cells were plated at 2–2.5 × 10^4 cells/well the day before experiments in 96-well plates (NUNC) coated with 50 μg/mL poly-D-lysine (Merck Millipore). […] Responses were measured using a Flexstation 3 plate reader (Molecular Devices) with dual excitation wavelengths of 340 and 380 nm and single emission wavelength of 510 nm. The sample interval was 3.5 s, and each well was recorded for 180 s. Fura-2 ratios were calculated in Softmax Pro v5.4; zero baseline was applied, and responses were measured as normalized area under the curve (AUC). Dose inhibition curves were plotted using GraphPad Prism v6 nonlinear regression (three parameter fit) and log IC50 values reported.

M105A hP2X7 = target: T2, M105A hP2X7 (Homo sapiens, UniProt Q99572, M105A); test: fura-2 intracellular calcium assay on HEK-293 stable cell line expressing NAM-site mutant M105A hP2X7; format: cell-based; settings: for IC50: n = 3
T2 sequence (Q99572 1-595 M105A): T1 sequence (Q99572 1-595) with M105A
Method: as §1
P2X7 responses were measured by monitoring intracellular calcium responses using fura-2AM loaded cells. Cells were plated at 2–2.5 × 10^4 cells/well the day before experiments in 96-well plates (NUNC) coated with 50 μg/mL poly-D-lysine (Merck Millipore). A loading buffer containing 2 μM fura-2AM (HelloBio) and 250 μM sulfinpyrazone (Merck Millipore) in a low divalent buffer (145 mM NaCl, 5 mM KCl, 0.2 mM CaCl2, 10 mM HEPES, 13 mM glucose, pH 7.3) was added to cells for 45 min at 37 °C. After loading, the buffer was removed and replaced with calcium-containing extracellular solution (145 mM NaCl, 5 mM KCl, 2 mM CaCl2, 10 mM HEPES, 13 mM glucose, pH 7.3). Responses were measured using a Flexstation 3 plate reader (Molecular Devices) with dual excitation wavelengths of 340 and 380 nm and single emission wavelength of 510 nm. The sample interval was 3.5 s, and each well was recorded for 180 s. Fura-2 ratios were calculated in Softmax Pro v5.4; zero baseline was applied, and responses were measured as normalized area under the curve (AUC). Dose inhibition curves were plotted using GraphPad Prism v6 nonlinear regression (three parameter fit) and log IC50 values reported.

SMILES: O=C(NCC1(N2CCN(c3ccccc3)CC2)CCOCC1)c1cccnc1Sc1ccccc1 [JNJ-47965567]
- IC50 (human P2X7 (WT hP2X7)): 26 nM
- IC50 (human P2X7 (WT hP2X7); Human P2X7, species comparison (Table 1), log IC50 ± standard error, n = 3, read-out: Log IC50 (converted)): 9.12 nM
- IC50 (human P2X7 (WT hP2X7); Human P2X7, species comparison (Table 1), mean in brackets, n = 3, read-out: mean IC50): 9 nM
- IC50 (human P2X7 (WT hP2X7); WT hP2X7, agonist ATP (Table 2), log IC50 ± standard error, n = 3, read-out: Log IC50 (converted)): 11.9 nM
- IC50 (human P2X7 (WT hP2X7); WT hP2X7, agonist ATP (Table 2), mean in brackets, n = 3, read-out: mean IC50): 11.7 nM
- IC50 (M105A hP2X7; M105A hP2X7, agonist ATP, log IC50 ± standard error, read-out: Log IC50 (converted)): 45.6 nM
- IC50 (M105A hP2X7; M105A hP2X7, agonist ATP, mean in brackets, read-out: mean IC50): 45 nM
- IC50 (M105A hP2X7; M105A hP2X7, agonist BzATP, mean in brackets, read-out: mean IC50): 28.7 nM
- increase in IC50 at M105A-hP2X7 relative to hP2X7 (M105A hP2X7; M105A hP2X7 vs hP2X7): less than 5 fold
